Assay results published in patent US6280760A, “Peptide-coated implants and methods for producing same” (Merck Patent Gesellschaft mit beschraenkter Haftung, priority 1997, dated 2001).

How the values were obtained:
MC3T3 H1 osteoblasts [1] = assay: Proliferation of MC3T3 H1 osteoblasts on RGD peptide-coated PMMA bone cement shaped articles (WST-1 test); assay type: cell-based, mouse
Source text: For the covalent coupling of acrylate peptide 3, type iiia, to polymerized PMMA bone cement shaped articles, a coating process which was described in Example 3 was selected.
MC3T3 H1 mouse osteoblasts were then adhered to these RGD peptide-coated bone cement shaped articles as likewise described in Example 3, but with two differences: 12,000 cells/cm^2 instead of 48,000 cells/cm^2 were inoculated and the adhesion time was two hours instead of one hour. Additionally, only three different peptide concentrations were investigated in the coating solution: 0.01 μM, 1 μM and 100 μM.
After washing off non-adherent cells, the MC3T3 H1 osteoblasts were cultured under 95% atmospheric humidity and 5% CO2 at 37° C. in serum-containing (10%) culture medium for a period of 15 days. During the course of this, the medium was changed twice per week and after 1, 2, 3, 4, 5, 10 and 15 days the cell count was determined by means of the WST-1 test by Boehringer Mannheim, Germany. In each case a typical exponential course of the cell proliferation of the cultured osteoblasts was seen here (FIG. 13). The maximally achieved cell count was directly dependent on the RGD peptide concentration in the coating solution. Thus after 15 culturing days per cm^2, about 1,000,000 cells (100 μM peptide), about 550,000 cells (1 μM peptide), about 300,000 cells (0.01 μM peptide) or about 230,000 cells were achieved (control without peptide). At the highest peptide concentration of 100 μM, an approximately 4- to 5-fold increase in the cell proliferation in comparison with uncoated samples was thus observed.

MC3T3 H1 osteoblasts [2] = assay: Adhesion of MC3T3 H1 osteoblasts to PMMA bone cement shaped articles coated with cell-selective acrylate peptides; assay type: cell-based, mouse; details: for cell adhesion, calculated Abs (405 nm), osteoblasts: first part experiment
Source text: (§1) The model used for material coating with RGD peptides of different cell selectivity to obtain implants having locally differentiated bioactive coating patterns which should stimulate the adhesion of different cell species was polymerized PMMA bone cement shaped articles. To these were covalently coupled two RGD peptides of different cell selectivity. In this case acrylate peptide 3, type iiia, having a selectivity for alphav beta3 -/alphav beta5 -integrin-bearing osteoblasts, and acrylate peptide 5, type iiia, having a selectivity for […] -positive platelets were bonded to the PMMA shaped articles as described for Example 3.
(§2) a. In the first part experiment, PMMA shaped articles were coated with the acrylate peptides 3 and 5 in concentrations in the coating solution of 100 μM, 10 μM and 1 μM in each case. These RGD peptide-coated materials were then inoculated in parallel with osteoblasts and platelets and their cell adhesion was determined.
(§3) MC3T3 H1 osteoblasts (350,000 cells/cm^2) and human platelets (50 million cells/cm^2) were in each case inoculated in parallel both onto acrylate peptide 3- and acrylate peptide 5-coated PMMA shaped articles and their cell adhesion was determined as described in Example 3.
(§4) b. In the second part experiment, PMMA shaped articles were likewise coated with the acrylate peptides 3 and 5, but only in a concentration in the coating solution of 100 μM in each case. These RGD peptide-coated materials were then inoculated in parallel with osteoblasts, platelets or an osteoblast/platelet mixture and their cell adhesion was determined. MC3T3 H1 osteoblasts (350,000 cells/cm^2), human platelets (50 million cell/cm^2) and a cell mixture (350,000 osteoblasts/cm^2 […] 50 million platelets/cm^2) were in each case inoculated in parallel both onto acrylate peptide 3- and acrylate peptide 5-coated PMMA shaped articles and their cell adhesion was determined as described in Example 3.

human platelets = assay: Adhesion of human platelets to PMMA bone cement shaped articles coated with cell-selective acrylate peptides; assay type: cell-based; details: for cell adhesion, calculated Abs (405 nm), platelets: first part experiment
Source text: as §1, §2, §3
Human platelets were prepared following the process of Shattil and Brass (J. Biol. Chem. 262:992-1000, 1987).
as §4

[3] = 1 μM peptide in the coating solution
[4] = 100 μM peptide in the coating solution
[5] = 10 μM peptide in the coating solution
[6] = second part experiment, 100 μM peptide in the coating solution

Substance: cyclo(RGDf[acrylic-ahx-tEG-K]) [acrylate peptide 3]
- cell count after 15 culturing days per cm^2 (MC3T3 H1 osteoblasts [1]; 0.01 μM peptide in the coating solution): about 300,000 cells
- cell count after 15 culturing days per cm^2 (MC3T3 H1 osteoblasts [1]; [3]): about 550,000 cells
- cell count after 15 culturing days per cm^2 (MC3T3 H1 osteoblasts [1]; [4]): about 1,000,000 cells
- cell adhesion, calculated Abs (405 nm), osteoblasts (MC3T3 H1 osteoblasts [2]; [3]): about 1.8 Abs
- cell adhesion, calculated Abs (405 nm), osteoblasts (MC3T3 H1 osteoblasts [2]; [5]): about 2.0 Abs
- cell adhesion, calculated Abs (405 nm), osteoblasts (MC3T3 H1 osteoblasts [2]; [4]): about 6.0 Abs
- cell adhesion, Abs, osteoblasts alone (MC3T3 H1 osteoblasts [2]; [6]): about 6.0 Abs
- cell adhesion, calculated Abs (405 nm), platelets (human platelets; [3]): about 0.2 Abs
- cell adhesion, calculated Abs (405 nm), platelets (human platelets; [5]): about 1.5 Abs
- cell adhesion, calculated Abs (405 nm), platelets (human platelets; [4]): about 3.0 Abs
- cell adhesion, Abs, platelets alone (human platelets; [6]): about 3.0 Abs
